In patent publication US8420657B2 (Novartis AG, priority 2008, dated 2013):

Target: T1, GST-JAK2(808-1132) (Homo sapiens, UniProt O60674)
T1 construct: GST-JAK2(808-1132); purchased Invitrogen (Carlsbad, USA) #4288
Experiment: JAK2 kinase assay (Caliper mobility shift, LabChip 3000)
Type: biochemical
Excerpt: All four kinases of the JAK/TYK-kinase family were used as purified recombinant GST-fusion proteins, containing the active kinase domains. GST-JAK1 (866-1154), GST-JAK3(811-1124), and GST-TYK2(888-1187) were expressed and purified by affinity chromatography at the EPK biology unit. GST-JAK2(808-1132) was purchased from Invitrogen (Carlsbad, USA, #4288).
The kinase assays were based on the Caliper mobility shift assay using the LabChip 3000 systems. This technology is similar to capillary electrophoresis and uses charge driven separation of substrate and product in a microfluidic chip.
All kinase reactions were performed in 384 well microtiter plates in a total reaction volume of 18 μl. The assay plates were prepared with 0.1 μl per well of test compound in the appropriate test concentration, as described under the section “preparation of compound dilutions”. The reactions were started by combining 9 μl of substrate mix (consisting of peptide and ATP) with 9 μl of kinase dilution. The reactions were incubated for 60 minutes at 30° C. and stopped by adding 70 μl of stop buffer (100 mM Hepes, 5% DMSO, 0.1% Coating reagent, 10 mM EDTA, 0.015% Brij 35).
Fluorescently labeled synthetic peptides were used as substrates in all reactions. A peptide derived from the sequence of IRS-1(IRS-1 peptide, SEQ ID NO: 1 FITC-Ahx-KKSRGDYMTMQIG-NH2) was used for JAK1 and TYK2 and a peptide named JAK3tide SEQ ID NO: 2 (FITC-GGEEEEYFELVKKKK-NH2) for JAK2 and JAK3. Specific assay conditions are described in Table1:
The terminated reactions were transferred to the Caliper LabChip 3000 reader and the turnover of each reaction was measured by determining the substrate/product ratio.
Test compounds were dissolved in DMSO (10 mM) and transferred into 1.4 mL flat bottom or V-shaped Matrix tubes carrying a unique 2D matrix chip by individual compound hubs. The numbers of these chips were distinctively linked to the individual compound identification numbers. The stock solutions were stored at −20° C. if not used immediately. For the test procedure the vials were defrosted and identified by a scanner whereby a working sheet was generated that guided the subsequent working steps. Compound dilutions were made in 96 well plates. This format enabled the assay of maximally 40 individual test compounds at 8 concentrations (single points) including 4 reference compounds. The dilution protocol included the production of pre-dilution plates, master plates and assay plates:
Pre-dilution plates: 96 polypropylene well plates were used as pre-dilution plates. A total of 4 pre-dilution plates were prepared including 10 test compounds each on the plate positions A1-A10, one standard compound at A11 and one DMSO control at A12. All dilution steps were done on a HamiltonSTAR robot.
Master plates: 100 μL of individual compound dilutions including standard compound and controls of the 4 “pre-dilution plates” were transferred into a 384 “master plate” including the following concentrations 1,820, […], 182, 54.6, 18.2, 5.46, 1.82 and 0.546 μM, respectively in 90% of DMSO.
Assay plates: Identical assay plates were then prepared by pipetting 100 nL each of compound dilutions of the master plates into 384-well “assay plates”. In the following the compounds were mixed with 9 μL of assays components plus 9 μL enzyme corresponding to a 1:181 dilution steps enabling the final concentration of 10, 3.0, 1.0, 0.3, 0.1, 0.03, 0.01 and 0.003 μM, respectively. The preparation of the master plates were handled by the Matrix PlateMate Plus robot and replication of assay plates by the HummingBird robot.

T1 sequence (O60674 808-1132): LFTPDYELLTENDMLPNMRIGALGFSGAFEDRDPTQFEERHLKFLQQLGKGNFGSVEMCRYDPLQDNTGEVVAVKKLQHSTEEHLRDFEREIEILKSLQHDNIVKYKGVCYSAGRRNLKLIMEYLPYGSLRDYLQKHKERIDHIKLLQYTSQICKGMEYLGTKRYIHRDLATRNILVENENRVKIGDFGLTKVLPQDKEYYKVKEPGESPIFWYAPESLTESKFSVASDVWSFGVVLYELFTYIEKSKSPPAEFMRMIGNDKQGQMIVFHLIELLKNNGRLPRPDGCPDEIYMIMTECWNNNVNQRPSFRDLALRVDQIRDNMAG

SMILES	IC50
CCN1CCN(Cc2ccc(Nc3ncc4ccn(-c5cc(F)c(CN6CCOCC6)c(F)c5)c4n3)nc2)CC1 [Example 316, [7-(3,5-Difluoro-4-morpholin-4-ylmethyl-phenyl)-7H-pyrrolo[2,3-d]pyrimidin-2-yl]-[5-(4-ethyl-piperazin-1-ylmethyl)-pyridin-2-yl]-amine]	73 nM
Cc1ccc(Nc2ncc3ccn(-c4ccc(S(C)(=O)=O)cc4)c3n2)cc1CN1CCOCC1 [Example 328, [7-(4-Methanesulfonyl-phenyl)-7H-pyrrolo[2,3-d]pyrimidin-2-yl]-(4-methyl-3-morpholin-4-ylmethyl-phenyl)-amine]	16 nM
O=C(c1c(F)cc(-n2ccc3cnc(Nc4ccc(CN5CCNCC5)cc4)nc32)cc1F)N1CCOCC1 [Example 314, {2,6-Difluoro-4-[2-(4-piperazin-1-ylmethyl-phenylamino)-pyrrolo[2,3-d]pyrimidin-7-yl]-phenyl}-morpholin-4-yl-methanone]	< 3 nM
CN1CCN(c2ccc(Nc3ncc4ccn(-c5ccc(C(O)C6CC6)cc5)c4n3)cn2)CC1 (stereo not shown) [Example 277, Cyclopropyl-(4-{2-[6-(4-methyl-piperazin-1-yl)-pyridin-3-ylamino]-pyrrolo[2,3-d]pyrimidin-7-yl}-phenyl)-methanol]	8.3 nM
COc1cc(C)c(Nc2ncc3ccn(-c4ccc(S(C)(=O)=O)cc4)c3n2)cc1OC [Example 11, (4,5-Dimethoxy-2-methyl-phenyl)-[7-(4-methanesulfonyl-phenyl)-7H-pyrrolo[2,3-d]pyrimidin-2-yl]-amine]	190 nM
Cc1ccc(Nc2ncc3ccn(-c4ccc(C(=O)N5CCOCC5)c(F)c4)c3n2)cc1CN1CCN(C)CC1 [Example 326, (2-Fluoro-4-{2-[4-methyl-3-(4-methyl-piperazin-1-ylmethyl)-phenylamino]-pyrrolo[2,3-d]pyrimidin-7-yl}-phenyl)-morpholin-4-yl-methanone]	< 3 nM
CS(=O)(=O)c1ccc(-n2ccc3cnc(Nc4ccc(C(=O)NCCO)cc4)nc32)cc1 [Example 51, N-(2-Hydroxy-ethyl)-4-[7-(4-methanesulfonyl-phenyl)-7H-pyrrolo[2,3-d]pyrimidin-2-ylamino]-benzamide]	< 3 nM
CN1CCN(c2ccc(Nc3ncc4ccn(-c5ccc(S(=O)(=O)NC(C)(C)C)cc5)c4n3)cc2)CC1 [Example 348, N-tert-Butyl-4-{2-[4-(4-methyl-piperazin-1-yl)-phenylamino]-pyrrolo[2,3-d]pyrimidin-7-yl}-benzenesulfonamide]	6.2 nM
CN1CCN(c2cccc(Nc3ncc4ccn(-c5cc(F)c(C(=O)N6CCOCC6)c(F)c5)c4n3)c2)CC1 [Example 207, (2,6-Difluoro-4-{2-[3-(4-methyl-piperazin-1-yl)-phenylamino]-pyrrolo[2,3-d]pyrimidin-7-yl}-phenyl)-morpholin-4-yl-methanone]	< 3 nM
Cc1cc(Nc2ncc3ccn(-c4cc(F)c(CN5CCOCC5)c(F)c4)c3n2)ccc1CN1C[C@@H](C)N[C@@H](C)C1 [Example 461, [7-(3,5-Difluoro-4-morpholin-4-ylmethyl-phenyl)-7H-pyrrolo[2,3-d]pyrimidin-2-yl]-[4-(cis-3,5-dimethyl-piperazin-1-ylmethyl)-3-methyl-phenyl]-amine]	≤ 3 nM
Fc1cc(-n2ccc3cnc(Nc4ccc(CN5CCNCC5)cc4)nc32)cc(F)c1CN1CCOCC1 [Example 315, [7-(3,5-Difluoro-4-morpholin-4-ylmethyl-phenyl)-7H-pyrrolo[2,3-d]pyrimidin-2-yl]-(4-piperazin-1-ylmethyl-phenyl)-amine]	< 3 nM
CN1CCN(c2ccc(Nc3ncc4ccn(-c5ccc(S(N)(=O)=O)cc5)c4n3)cc2)CC1 [Example 349, 4-{2-[4-(4-Methyl-piperazin-1-yl)-phenylamino]-pyrrolo[2,3-d]pyrimidin-7-yl}-benzenesulfonamide]	16 nM
Fc1cc(-n2ccc3cnc(Nc4ccc(CN5CCN(C6CC6)CC5)cc4)nc32)cc(F)c1CN1CCOCC1 [Example 329, [4-(4-Cyclopropyl-piperazin-1-ylmethyl)-phenyl]-[7-(3,5-difluoro-4-morpholin-4-ylmethyl-phenyl)-7H-pyrrolo[2,3-d]pyrimidin-2-yl]-amine]	4 nM
COc1ccc(Nc2ncc3ccn(-c4ccc(S(C)(=O)=O)cc4)c3n2)cc1 [Example 20, [7-(4-Methanesulfonyl-phenyl)-7H-pyrrolo[2,3-d]pyrimidin-2-yl]-(4-methoxy-phenyl)-amine]	3.9 nM
CN1CCN(Cc2ccc(Nc3ncc4ccn(-c5cc(F)c(C(=O)N6CCOCC6)c(F)c5)c4n3)cc2C(F)(F)F)CC1 [Example 204, (2,6-Difluoro-4-{2-[4-(4-methyl-piperazin-1-ylmethyl)-3-trifluoromethyl-phenylamino]-pyrrolo[2,3-d]pyrimidin-7-yl}-phenyl)-morpholin-4-yl-methanone]	< 3 nM
C[C@@H]1CN(Cc2ccc(Nc3ncc4ccn(-c5cc(F)c(CN6CCOCC6)c(F)c5)c4n3)cc2)C[C@H](C)N1 [Example 254]	< 3 nM
O=C(c1ccc(-n2ccc3cnc(Nc4ccc(C(F)(F)F)nc4)nc32)cc1)N1CCOCC1 [Example 236, Morpholin-4-yl-{4-[2-(6-trifluoromethyl-pyridin-3-ylamino)-pyrrolo[2,3-d]pyrimidin-7-yl]-phenyl}-methanone]	46 nM
CCc1ccc(-n2ccc3cnc(Nc4ccc(N5CCN(C)CC5)nc4)nc32)cc1 [Example 438, [7-(4-Ethyl-phenyl)-7H-pyrrolo[2,3-d]pyrimidin-2-yl]-[6-(4-methyl-piperazin-1-yl)-pyridin-3-yl]-amine]	≤ 3 nM
CN1CCN(c2ccc(Nc3ncc4ccn(-c5ccc(N6CCCC6=O)cc5)c4n3)cn2)CC1 [Example 283, 1-(4-{2-[6-(4-Methyl-piperazin-1-yl)-pyridin-3-ylamino]-pyrrolo[2,3-d]pyrimidin-7-yl}-phenyl)-pyrrolidin-2-one]	23 nM
COc1ccc(Nc2ncc3ccn(-c4ccc(S(C)(=O)=O)cc4)c3n2)cc1O [Example 24, 5-[7-(4-Methanesulfonyl-phenyl)-7H-pyrrolo[2,3-d]pyrimidin-2-ylamino]-2-methoxy-phenol]	3.5 nM
COc1ccc(Nc2ncc3ccn(-c4ccc(S(C)(=O)=O)cc4)c3n2)c(OC)c1 [Example 22, (2,4-Dimethoxy-phenyl)-[7-(4-methanesulfonyl-phenyl)-7H-pyrrolo[2,3-d]pyrimidin-2-yl]-amine]	170 nM
N#Cc1ccc(Nc2ncc3ccn(-c4ccc(C(=O)N5CCOCC5)c(F)c4)c3n2)cn1 [Example 228, 5-{7-[3-Fluoro-4-(morpholine-4-carbonyl)-phenyl]-7H-pyrrolo[2,3-d]pyrimidin-2-ylamino}-pyridine-2-carbonitrile]	56.5 nM
Cc1ccc(Nc2ncc3ccn(-c4ccc(C(=O)N5CCOCC5)c(F)c4)c3n2)cc1CN1C[C@H](C)NC[C@H]1C (racemic) [Example 379, (4-{2-[3-((2R,5S)-2,5-Dimethyl-piperazin-1-ylmethyl)-4-methyl-phenylamino]-pyrrolo[2,3-d]pyrimidin-7-yl}-2-fluoro-phenyl)-morpholin-4-yl-methanone]	11 nM
COc1ccc(Nc2ncc3ccn(-c4ccc(S(=O)(=O)NC(C)(C)C)cc4)c3n2)cc1OC [Example 6, N-tert-Butyl-4-[2-(3,4-dimethoxy-phenylamino)-pyrrolo[2,3-d]pyrimidin-7-yl]-benzenesulfonamide]	< 3 nM
CCN1CCN(c2ccc(Nc3ncc4ccn(-c5ccc(CC(=O)N6CCN(C)CC6)cc5)c4n3)cc2C)CC1 [Example 284, 2-(4-{2-[4-(4-Ethyl-piperazin-1-yl)-3-methyl-phenylamino]-pyrrolo[2,3-d]pyrimidin-7-yl}-phenyl)-1-(4-methyl-piperazin-1-yl)-ethanone]	3.7 nM
